From patent US8802597B2, “Herbicidal pyrimidines” (E I du Pont de Nemours and Company, priority 2003, dated 2014)
Where two headings read alike, the source gives them in different places.

Experiments:
Type in all cases: in vivo
[1] = tested on: duck salad (Heteranthera limosa); assay: Test B flooded paddy test; settings: Heteranthera limosa, Flood, scale 0 to 100, read-out: Plant response rating, Ducksalad
How it was run: (§1)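 Rice, umbrella sedge, duck salad and barnyardgrass grown to 2-leaf stage under flooded paddy conditions and treated with formulated test chemicals. Kept in greenhouse 13–15 days, then visually rated against untreated controls on a 0–100 scale (0 no effect, 100 complete control).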

[2] = tested on: rice (Oryza sativa); assay: Test B flooded paddy test; settings: Oryza sativa, Flood, scale 0 to 100, read-out: Plant response rating, Rice
How it was run: as §1

[3] = tested on: barnyardgrass (Echinochloa crus-galli); assay: Test B flooded paddy test; settings: Echinochloa crus-galli, Flood, scale 0 to 100, read-out: Plant response rating, Barnyardgrass
How it was run: as §1

[4] = tested on: umbrella sedge (Cyperus difformis); assay: Test B flooded paddy test; settings: Cyperus difformis, Flood, scale 0 to 100, read-out: Plant response rating, Sedge, Umbrella
How it was run: as §1

[5] = tested on: crabgrass (Digitaria sanguinalis); assay: Test B pre/postemergence; settings: Digitaria sanguinalis; for pest or weed control at 62 g/ha: 62 g ai/ha; for pest or weed control at 125 g/ha: 125 g ai/ha
How it was run: (§2)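 Visual rating, 0 (no effect) to 100 (complete control) versus controls, taken 13–15 days after treatment in greenhouse. Compounds formulated in non-phytotoxic solvent plus surfactant; pre: sprayed after seeding; post: plants at 1- to 4-leaf stage, 2–18 cm.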

[6] = tested on: velvetleaf (Abutilon theophrasti); assay: Test B pre/postemergence; settings: Abutilon theophrasti; for pest or weed control at 62 g/ha: 62 g ai/ha; for pest or weed control at 125 g/ha: 125 g ai/ha
How it was run: as §2

[7] = tested on: pigweed (Amaranthus retroflexus); assay: Test B pre/postemergence; settings: Amaranthus retroflexus; for pest or weed control at 62 g/ha: 62 g ai/ha; for pest or weed control at 125 g/ha: 125 g ai/ha
How it was run: as §2

[8] = tested on: barnyardgrass (Echinochloa crus-galli); assay: Test B pre/postemergence; settings: Echinochloa crus-galli, scale 0 to 100 (0 no effect, 100 complete control); for pest or weed control at 62 g/ha: 62 g ai/ha; for pest or weed control at 125 g/ha: 125 g ai/ha
How it was run: as §2

[9] = tested on: wheat (Triticum aestivum); assay: Test B pre/postemergence; settings: Triticum aestivum, scale 0 to 100 (0 no effect, 100 complete control); for plant injury at 62 g/ha: 62 g ai/ha; for plant injury at 125 g/ha: 125 g ai/ha
How it was run: as §2

[10] = tested on: giant foxtail (Setaria faberii); assay: Test B pre/postemergence; settings: Setaria faberi; for pest or weed control at 125 g/ha: 125 g ai/ha; for pest or weed control at 62 g/ha: 62 g ai/ha
How it was run: as §2

[11] = tested on: cocklebur (Xanthium strumarium); assay: Test B pre/postemergence; settings: Xanthium strumarium; for pest or weed control at 125 g/ha: 125 g ai/ha, scale 0 to 100 (0 no effect, 100 complete control)
How it was run: as §2

[12] = tested on: Surinam grass (Brachiaria decumbens); assay: Test B pre/postemergence; settings: Urochloa decumbens; for pest or weed control at 125 g/ha: 125 g ai/ha; for pest or weed control at 62 g/ha: 62 g ai/ha
How it was run: as §2

[13] = tested on: morningglory (Ipomoea coccinea); assay: Test B pre/postemergence; settings: Ipomoea; for pest or weed control at 62 g/ha: 62 g ai/ha; for pest or weed control at 125 g/ha: 125 g ai/ha
How it was run: as §2

[14] = tested on: lambsquarters (Chenopodium album); assay: Test B pre/postemergence; settings: Chenopodium album; for pest or weed control at 62 g/ha: 62 g ai/ha; for pest or weed control at 125 g/ha: 125 g ai/ha
How it was run: as §2

[15] = tested on: corn (Zea mays); assay: Test B pre/postemergence; settings: Zea mays
How it was run: as §2

[16] = tested on: wild oat (Avena fatua); assay: Test B postemergence; settings: Avena fatua, post-emergence, scale 0 to 100 (0 no effect, 100 complete control), read-out: Oat, Wild plant response rating
How it was run: as §2

[17] = tested on: blackgrass (Alopecurus myosuroides); assay: Test B postemergence; settings: Alopecurus myosuroides, post-emergence, scale 0 to 100 (0 no effect, 100 complete control), read-out: Blackgrass plant response rating
How it was run: as §2

[18] = post-emergence, Postemergence, scale 0 to 100 (0 no effect, 100 complete control), read-out: Crabgrass plant response rating
[19] = post-emergence, Postemergence, scale 0 to 100 (0 no effect, 100 complete control), read-out: Velvetleaf plant response rating
[20] = post-emergence, Postemergence, scale 0 to 100 (0 no effect, 100 complete control), read-out: Pigweed plant response rating
[21] = post-emergence, Postemergence, read-out: Barnyardgrass plant response rating
[22] = pre-emergence, Preemergence, read-out: Plant response rating, Barnyardgrass
[23] = post-emergence, Postemergence, read-out: Wheat plant response rating
[24] = pre-emergence, Preemergence, read-out: Plant response rating, Wheat
[25] = post-emergence, Postemergence, scale 0 to 100 (0 no effect, 100 complete control), read-out: Foxtail, Giant plant response rating
[26] = post-emergence, Postemergence, scale 0 to 100 (0 no effect, 100 complete control), read-out: Surinam Grass plant response rating
[27] = post-emergence, Postemergence, scale 0 to 100 (0 no effect, 100 complete control), read-out: Morningglory plant response rating
[28] = post-emergence, Postemergence, scale 0 to 100 (0 no effect, 100 complete control), read-out: Lambsquarters plant response rating

Q: With `CNc1nc(C2CC2)nc(C(=O)OC)c1Cl` [Compound 79] as the compound, how does the pest or weed control at 125 g/ha ([1]; 125 g ai/ha) read?
A: 10%

Q: What about the pest or weed control at 500 g/ha ([1]; 500 g ai/ha) of the same compound?
A: 70%

Q: What about the plant injury at 125 g/ha ([2]; 125 g ai/ha) of the same compound?
A: 0%

Q: What about the plant injury at 500 g/ha ([2]; 500 g ai/ha) of the same compound?
A: 20%

Q: And the pest or weed control at 125 g/ha ([3]; 125 g ai/ha)?
A: 0%

Q: And the pest or weed control at 500 g/ha ([3]; 500 g ai/ha)?
A: 0%

Q: What about the pest or weed control at 125 g/ha ([4]; 125 g ai/ha) of the same compound?
A: 0%

Q: What about the pest or weed control at 500 g/ha ([4]; 500 g ai/ha) of the same compound?
A: 0%

Q: What about the pest or weed control at 62 g/ha [5, 18] of the same compound?
A: 30%

Q: What about the pest or weed control at 125 g/ha [5, 18] of the same compound?
A: 60%

Q: What about the pest or weed control at 62 g/ha ([5]; pre-emergence, Preemergence, scale 0 to 100, 0 no effect, 100 complete control, read-out: Plant response rating, Crabgrass) of the same compound?
A: 0%

Q: What about the pest or weed control at 125 g/ha ([5]; pre-emergence, Preemergence, scale 0 to 100 (0 no effect, 100 complete control), read-out: Plant response rating, Crabgrass) of the same compound?
A: 70%

Q: And the pest or weed control at 62 g/ha [6, 19]?
A: 50%

Q: And the pest or weed control at 125 g/ha [6, 19]?
A: 80%

Q: What about the pest or weed control at 62 g/ha ([6]; pre-emergence, Preemergence, scale 0 to 100, 0 no effect, 100 complete control, read-out: Plant response rating, Velvetleaf) of the same compound?
A: 50%

Q: What about the pest or weed control at 125 g/ha ([6]; pre-emergence, Preemergence, scale 0 to 100 (0 no effect, 100 complete control), read-out: Plant response rating, Velvetleaf) of the same compound?
A: 80%

Q: What about the pest or weed control at 62 g/ha [7, 20] of the same compound?
A: 80%

Q: What about the pest or weed control at 125 g/ha [7, 20] of the same compound?
A: 100%

Q: What about the pest or weed control at 62 g/ha ([7]; pre-emergence, Preemergence, scale 0 to 100, 0 no effect, 100 complete control, read-out: Plant response rating, Pigweed) of the same compound?
A: 80%

Q: What about the pest or weed control at 125 g/ha ([7]; pre-emergence, Preemergence, scale 0 to 100 (0 no effect, 100 complete control), read-out: Plant response rating, Pigweed) of the same compound?
A: 100%

Q: What about the pest or weed control at 62 g/ha [8, 21] of the same compound?
A: 50%

Q: And the pest or weed control at 125 g/ha [8, 21]?
A: 80%

Q: What about the pest or weed control at 62 g/ha [8, 22] of the same compound?
A: 0%

Q: What about the pest or weed control at 125 g/ha [8, 22] of the same compound?
A: 70%

Q: What about the plant injury at 62 g/ha [9, 23] of the same compound?
A: 0%

Q: What about the plant injury at 125 g/ha [9, 23] of the same compound?
A: 40%

Q: And the plant injury at 62 g/ha [9, 24]?
A: 0%

Q: And the plant injury at 125 g/ha [9, 24]?
A: 60%

Q: And the pest or weed control at 125 g/ha [10, 25]?
A: 70%

Q: What about the pest or weed control at 62 g/ha [10, 25] of the same compound?
A: 40%

Q: What about the pest or weed control at 125 g/ha ([10]; pre-emergence, Preemergence, scale 0 to 100 (0 no effect, 100 complete control), read-out: Plant response rating, Foxtail, Giant) of the same compound?
A: 20%

Q: What about the pest or weed control at 62 g/ha ([10]; pre-emergence, Preemergence, scale 0 to 100, 0 no effect, 100 complete control, read-out: Plant response rating, Foxtail, Giant) of the same compound?
A: 0%

Q: And the pest or weed control at 125 g/ha ([11]; post-emergence, Postemergence, read-out: Cocklebur plant response rating)?
A: 60%

Q: And the pest or weed control at 62 g/ha ([11]; pre-emergence, Preemergence, 62 g ai/ha, scale 0 to 100, 0 no effect, 100 complete control, read-out: Plant response rating, Cocklebur)?
A: 50%

Q: And the pest or weed control at 125 g/ha ([11]; pre-emergence, Preemergence, read-out: Plant response rating, Cocklebur)?
A: 80%

Q: What about the pest or weed control at 125 g/ha [12, 26] of the same compound?
A: 60%

Q: What about the pest or weed control at 62 g/ha [12, 26] of the same compound?
A: 20%

Q: And the pest or weed control at 125 g/ha ([12]; pre-emergence, Preemergence, scale 0 to 100 (0 no effect, 100 complete control), read-out: Plant response rating, Surinam Grass)?
A: 0%

Q: What about the pest or weed control at 62 g/ha ([12]; pre-emergence, Preemergence, scale 0 to 100, 0 no effect, 100 complete control, read-out: Plant response rating, Surinam Grass) of the same compound?
A: 0%

Q: And the pest or weed control at 62 g/ha [13, 27]?
A: 90%

Q: What about the pest or weed control at 125 g/ha [13, 27] of the same compound?
A: 100%

Q: And the pest or weed control at 62 g/ha ([13]; pre-emergence, Preemergence, scale 0 to 100, 0 no effect, 100 complete control, read-out: Plant response rating, Morningglory)?
A: 70%

Q: What about the pest or weed control at 125 g/ha ([13]; pre-emergence, Preemergence, scale 0 to 100 (0 no effect, 100 complete control), read-out: Plant response rating, Morningglory) of the same compound?
A: 90%

Q: And the pest or weed control at 62 g/ha [14, 28]?
A: 90%

Q: And the pest or weed control at 125 g/ha [14, 28]?
A: 100%

Q: And the pest or weed control at 62 g/ha ([14]; pre-emergence, Preemergence, scale 0 to 100, 0 no effect, 100 complete control, read-out: Plant response rating, Lambsquarters)?
A: 90%

Q: And the pest or weed control at 125 g/ha ([14]; pre-emergence, Preemergence, scale 0 to 100 (0 no effect, 100 complete control), read-out: Plant response rating, Lambsquarters)?
A: 90%

Q: What about the plant injury at 62 g/ha ([15]; post-emergence, Postemergence, 62 g ai/ha, scale 0 to 100 (0 no effect, 100 complete control), read-out: Corn plant response rating) of the same compound?
A: 20%

Q: And the plant injury at 125 g/ha ([15]; post-emergence, Postemergence, 125 g ai/ha, scale 0 to 100 (0 no effect, 100 complete control), read-out: Corn plant response rating)?
A: 60%

Q: What about the Corn plant response rating (crop injury, 0 = no effect, 100 = complete kill) at 62 g/ha ([15]; pre-emergence, Preemergence, 62 g ai/ha, scale 0 to 100, 0 no effect, 100 complete control) of the same compound?
A: 30%

Q: What about the Corn plant response rating (crop injury, 0 = no effect, 100 = complete kill) at 125 g/ha ([15]; pre-emergence, Preemergence, 125 g ai/ha, scale 0 to 100 (0 no effect, 100 complete control)) of the same compound?
A: 60%

Q: And the pest or weed control at 62 g/ha ([16]; 62 g ai/ha)?
A: 30%

Q: And the pest or weed control at 125 g/ha ([16]; 125 g ai/ha)?
A: 40%

Q: And the pest or weed control at 62 g/ha ([17]; 62 g ai/ha)?
A: 20%

Q: What about the pest or weed control at 125 g/ha ([17]; 125 g ai/ha) of the same compound?
A: 50%
